Measurements taken from patent publication US20250250582A1, “Plant Cells and Plants Modified to Increase Herbicide Resistance and Stress Tolerance and Methods of Using the Same” (The Board of Trustees of the University of Arkansas, priority 2018, published 2025).
Several values for one entry are separate records, joined by “and”; a condition that tells them apart may be missing. Equal values may be shown once.

How the values were obtained:
[1] = test system: multiple-resistant E. colona (ECO-R); assay: RNA-sequencing differential gene expression, herbicide-treated vs nontreated ECO-R; details: 24 h
Source text: (§1) Pure-line generated seed of each accession were germinated in pots containing potting soil within a temperature/light controlled growth chamber set to a 14-hr day length, 33 C day temperature, and 24 C night time to simulate environmental conditions early in the rice growing season. A single plant was maintained in each of the pots and used for the treatments; two pots were used as individual biological replicates. […] Pots for each of the respective treatments were labeled as either ECO-R/S-T for the treated samples and ECO-R/S-N for the non-treated counterpart. To minimize the effect that the sprayer may play in the application, both plants of the ECO-R and ECO-S were treated at the same time. After approximately 30 minutes, allowing for the plants to dry, the treated and non-treated plants of both accessions were moved back into the growth chamber. Precisely 24-hours after application, the aboveground portion of each of the plants were removed and immediately frozen in liquid nitrogen to cease all biological function. Samples were then transferred to RNAlater™-ICE (Invitrogen, Carlsbad CA, USA) for shipment to the Clemson University Genomics Institute (CUGI), in Clemson, South Carolina.
(§2) RNA was extracted from the young leaf tissues of both replications for the ECO-R and ECO-S, T and N samples, at Clemson University. Total RNA was extracted with a kit according to the manufactures instructions. The extracted RNA was treated with DNase (Invitrogen, Calsbad, CA, USA) to remove any DNA contamination prior to further processing. The samples were prepared for sequencing by CUGI. For library preparation, the TruSeq Stranded Total RNA kit (Illumina Inc., San Diego, CA, USA) was used according to the instructions provided by the manufacturer to produce a paired-end library for sequencing. Ribosomal RNA was removed using target-specific oligonucleotides paired with rRNA removal beads, removing all cytoplasmic and mitochondrial rRNA that may result in poor quality results. RNA was fragmented and reverse transcribed to cDNA using random primers, followed by a second strand cDNA synthesis. Each fragment is then ligated with an additional ‘A’ and an adapter for sequencing. The PCR enriched product is then used to create the final cDNA library. All samples were sequenced on an Illumina Hiseq 2500 platform housed in the Holdings Cancer Center at the Medical University of South Carolina, Charleston, SC, USA. Samples, regardless of treatments or replication were ran across three lanes to reduce sequencing errors from the equipment. The resulting data were processed by CUGI.
(§3) A de novo transcriptome was assembled from the treatments described for this experiment as well as several treatments, which included herbicides profiled in ECO-R. The treatments were applied to both ECO-R and ECO-S samples with two replications as described previously. In total, 20 individual plants, from both the ECO-R and ECO-S accessions, as well as T and NT samples, were used for the assembly. The transcriptome was assembled using the Trinity RNA-Seq pipeline (Broad Institute, Cambridge, MA, USA). Raw data were assessed for quality using FastQC (Babraham Institute, Cambridge, UK) and then processed to remove adapter sequences and low quality bases using a sliding window method. The processed data were then rerun using FastQC to ensure high quality reads. Using the TrinityRNASeq 2.2.0 software, the samples were normalized, by replication, using a coverage size of 100 and kmer of 32. The normalized reads were then assembled as transcripts and genes using Trinity with the stranded library set as the default.

[2] = test system: resistant Echinochloa species; assay: Determination of resistance level (visual injury), resistant accessions; type: in vivo, E. colona and E. crus-galli; details: visual 3 wk after treatment
Source text: The experiment was repeated once.

[3] = test system: susceptible E. colona (ECO-S); assay: RNA-sequencing differential gene expression, herbicide-treated vs nontreated ECO-S; details: ECO-S-T vs ECO-S-N, 24 h
Source text: as §1, §2, §3

**Q.** `CCC(=O)Nc1ccc(Cl)c(Cl)c1` [propanil] was tested. Which “ABC transporter C family member 10 Fold Change” value ([1]; ECO-R-T vs ECO-R-N) did it give?
**A.** 7.4 fold

**Q.** What about the “ACC oxidase fold change” value ([1]; ECO-R-T vs ECO-R-N) of the same molecule?
**A.** −4.5 fold

**Q.** What about the “ACCase 2 fold change” value ([1]; ECO-R-T vs ECO-R-N) of the same molecule?
**A.** −10.2 fold

**Q.** And the ACCase fold change ([1]; ECO-R-T vs ECO-R-N)?
**A.** −9.7 fold

**Q.** What about the “ADP sugar pyrophosphatase fold change” value ([1]; ECO-R-T vs ECO-R-N) of the same molecule?
**A.** −7.2 fold

**Q.** And the “Beta-glucosidase 22 fold change” value ([1]; ECO-R-T vs ECO-R-N)?
**A.** 3.6 fold

**Q.** And the “CYP72A11 Fold Change” value ([1]; ECO-R-T vs ECO-R-N)?
**A.** 3.1 fold

**Q.** And the “CYP72A13 Fold Change” value ([1]; ECO-R-T vs ECO-R-N)?
**A.** 3.8 fold

**Q.** And the “CYP72A15 Fold Change” value ([1]; ECO-R-T vs ECO-R-N)?
**A.** 2.6 fold and 3.4 fold and 2.9 fold

**Q.** And the “CYP89A2 Fold Change” value ([1]; ECO-R-T vs ECO-R-N)?
**A.** 2.5 fold and 3.8 fold and 3.6 fold

**Q.** What about the “CYP709B1 Fold Change” value ([1]; ECO-R-T vs ECO-R-N) of the same molecule?
**A.** 7.0 fold

**Q.** And the ERF7 fold change ([1]; ECO-R-T vs ECO-R-N)?
**A.** 6.7 fold

**Q.** What about the ERF060 fold change ([1]; ECO-R-T vs ECO-R-N) of the same molecule?
**A.** 2.1 fold

**Q.** What about the “GST23 Fold Change” value ([1]; ECO-R-T vs ECO-R-N) of the same molecule?
**A.** 6.7 fold

**Q.** What about the “GSTU17 fold change” value ([1]; ECO-R-T vs ECO-R-N) of the same molecule?
**A.** 7.9 fold

**Q.** What about the “NADH-cytochrome b5 reductase proteins fold change” value ([1]; ECO-R-T vs ECO-R-N) of the same molecule?
**A.** < −7.4 fold

**Q.** And the “NADP-dependent malic enzyme fold change” value ([1]; ECO-R-T vs ECO-R-N)?
**A.** −9.3 fold

**Q.** And the “Stress enhanced protein 2 fold change” value ([1]; ECO-R-T vs ECO-R-N)?
**A.** 2.5 fold

**Q.** What about the “UGT73C2 Fold Change” value ([1]; ECO-R-T vs ECO-R-N) of the same molecule?
**A.** 4.7 fold

**Q.** And the UGT73D1 fold change ([1]; ECO-R-T vs ECO-R-N)?
**A.** 5.3 fold and 6.9 fold and 4.8 fold

**Q.** And the UGT73E1 fold change ([1]; ECO-R-T vs ECO-R-N)?
**A.** 3.0 fold

**Q.** And the “UGT74G1 Fold Change” value ([1]; ECO-R-T vs ECO-R-N)?
**A.** 4.6 fold and 4.5 fold

**Q.** And the UGT75D1 fold change ([1]; ECO-R-T vs ECO-R-N)?
**A.** 7.4 fold

**Q.** And the “UGT83A1 Fold Change” value ([1]; ECO-R-T vs ECO-R-N)?
**A.** 2.3 fold

**Q.** And the “acetyl-coenzyme A synthetase fold change” value ([1]; ECO-R-T vs ECO-R-N)?
**A.** −8.4 fold

**Q.** And the “disease resistance protein RPM1 fold change” value ([1]; ECO-R-T vs ECO-R-N)?
**A.** 7.1 fold

**Q.** What about the “ferredoxin 6 fold change” value ([1]; ECO-R-T vs ECO-R-N) of the same molecule?
**A.** < −2.4 fold

**Q.** And the “fructose-1,6-bisphosphatase fold change” value ([1]; ECO-R-T vs ECO-R-N)?
**A.** −9.3 fold

**Q.** And the “glutamine synthetase fold change” value ([1]; ECO-R-T vs ECO-R-N)?
**A.** −10.5 fold

**Q.** What about the “malate dehydrogenase fold change” value ([1]; ECO-R-T vs ECO-R-N) of the same molecule?
**A.** −10.8 fold

**Q.** What about the “peroxidase 5 fold change” value ([1]; ECO-R-T vs ECO-R-N) of the same molecule?
**A.** −3.1 fold

**Q.** What about the “phenolic glucoside malonyltransferase 1 fold change” value ([1]; ECO-R-T vs ECO-R-N) of the same molecule?
**A.** −3.5 fold

**Q.** What about the “pyruvate dehydrogenase E1 subunit fold change” value ([1]; ECO-R-T vs ECO-R-N) of the same molecule?
**A.** < −10.4 fold

**Q.** And the “pyruvate phosphate dikinase fold change” value ([1]; ECO-R-T vs ECO-R-N)?
**A.** −12 fold

**Q.** What about the “ubiquinol cytochrome-c reductase complex core protein fold change” value ([1]; ECO-R-T vs ECO-R-N) of the same molecule?
**A.** < −8.6 fold

**Q.** What about the “ATP synthase subunit(s) fold change” value ([1]; ECO-R-T vs ECO-R-N, repressed) of the same molecule?
**A.** < −10 fold

**Q.** What about the TPS6 repression ([1]; ECO-R-T vs ECO-R-N, repressed) of the same molecule?
**A.** 6.1 fold

**Q.** What about the “sugar transporter ERD6-like 8 repression” value ([1]; ECO-R-T vs ECO-R-N, repressed) of the same molecule?
**A.** 4.2 fold

**Q.** And the “sugar transporter SWEET2a repression” value ([1]; ECO-R-T vs ECO-R-N, repressed)?
**A.** 3.8 fold

**Q.** And the “heat shock proteins fold change” value ([1]; ECO-R-T vs ECO-R-N, repressed by as much as)?
**A.** ≤ −9.9 fold

**Q.** What about the CYP72A14 fold induction ([1]; Echinochloa colona, in vivo) of the same molecule?
**A.** ~3 fold

**Q.** And the “injury of ECO187” value ([2]; 2 X dose (4480 g ai/ha))?
**A.** 97%

**Q.** And the “injury of resistant Echinochloa species” value ([2]; 2 X dose, propanil range excludes ECO187)?
**A.** 27-57%

**Q.** What about the “ABC transporter G family member 5 Fold Change” value [3] of the same molecule?
**A.** 2.8 fold

**Q.** And the “ABC transporter G family member 42 Fold Change” value [3]?
**A.** 1.5 fold

**Q.** What about the “ACC synthase fold change” value [3] of the same molecule?
**A.** −2.7 fold

**Q.** And the “CYP71A1 Fold Change” value [3]?
**A.** 2.9 fold

**Q.** What about the “CYP71A21 Fold Change” value [3] of the same molecule?
**A.** 5.1 fold

**Q.** And the “CYP71D7 Fold Change” value [3]?
**A.** 5.9 fold

**Q.** What about the “CYP94C1 Fold Change” value [3] of the same molecule?
**A.** 3.7 fold and 5.4 fold and 5.5 fold

**Q.** What about the “CYP716B1 Fold Change” value [3] of the same molecule?
**A.** 3.0 fold

**Q.** And the “GSTU1 Fold Change” value [3]?
**A.** 2.5 fold and 2.7 fold

**Q.** What about the “GSTU6 Fold Change” value [3] of the same molecule?
**A.** 2.3 fold and 4.1 fold

**Q.** What about the “Heparan-alpha-glucosaminide N-acetyltransferase Fold Change” value [3] of the same molecule?
**A.** 2.5 fold

**Q.** What about the “MSR-1 Fold Change” value [3] of the same molecule?
**A.** 2.1 fold

**Q.** What about the MYB44 fold change [3] of the same molecule?
**A.** > 3 fold

**Q.** And the MYC3 fold change [3]?
**A.** 3.4 fold

**Q.** What about the “Probable glutathione S-transferase Fold Change” value [3] of the same molecule?
**A.** 1.8 fold

**Q.** What about the RGA2 fold change [3] of the same molecule?
**A.** > 7.5 fold

**Q.** And the RGA3 fold change [3]?
**A.** 1.7 fold

**Q.** What about the “UGT73B4 Fold Change” value [3] of the same molecule?
**A.** 3.8 fold and 5.7 fold

**Q.** What about the “UGT73C1 Fold Change” value [3] of the same molecule?
**A.** 3.1 fold

**Q.** And the “UGT73C2 Fold Change” value [3]?
**A.** 3.3 fold

**Q.** What about the “UGT74D1 Fold Change” value [3] of the same molecule?
**A.** 2.2 fold

**Q.** What about the “UGT75C1 Fold Change” value [3] of the same molecule?
**A.** 2.9 fold

**Q.** And the “Uncharacterized acetyltransferase At3g50280 Fold Change” value [3]?
**A.** 2.5 fold and 3.5 fold

**Q.** What about the “multiple ACC oxidase genes fold change” value [3] of the same molecule?
**A.** −1.8 to −2.2 fold

**Q.** And the “phosphoenolypyruvate carboxylase fold change” value [3]?
**A.** −2.1 to −3.4 fold

**Q.** And the “pyruvate dehydrogenase fold change” value [3]?
**A.** −5.6 to −6.2 fold

**Q.** And the “sugar transporter ERD6-like 6 fold change” value [3]?
**A.** 2.3 fold

**Q.** What about the “DNA and RNA polymerase-related transcripts fold change” value ([3]; repressed by as much as) of the same molecule?
**A.** ≤ −8.7 fold

**Q.** And the “ACCase and ACCase 2 fold change” value ([3]; repressed up to)?
**A.** up to −6.9 fold
